For 7 molecules, EC50, IC50 and AC50 results are on record in ChEMBL document CHEMBL1201862, “PubChem BioAssay data set” (2004).

The source made the active and inactive calls.

Assay [1] addresses T1, Corticotropin-releasing factor receptor 2/Corticotropin-releasing factor-binding protein (Homo sapiens, UniProt P24387+Q13324).
T1 sequence (Q13324 whole entry): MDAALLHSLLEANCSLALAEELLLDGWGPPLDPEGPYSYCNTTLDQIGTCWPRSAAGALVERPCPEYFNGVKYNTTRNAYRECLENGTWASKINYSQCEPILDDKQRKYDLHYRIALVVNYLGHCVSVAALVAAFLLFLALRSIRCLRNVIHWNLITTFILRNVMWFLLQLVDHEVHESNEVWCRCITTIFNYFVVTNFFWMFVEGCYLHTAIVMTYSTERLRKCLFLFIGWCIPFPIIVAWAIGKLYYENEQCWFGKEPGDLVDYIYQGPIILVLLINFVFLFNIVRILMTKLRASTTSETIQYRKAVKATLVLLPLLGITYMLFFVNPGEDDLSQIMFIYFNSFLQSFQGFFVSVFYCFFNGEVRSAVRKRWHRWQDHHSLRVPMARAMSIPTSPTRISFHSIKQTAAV
T1 sequence (P24387 whole entry): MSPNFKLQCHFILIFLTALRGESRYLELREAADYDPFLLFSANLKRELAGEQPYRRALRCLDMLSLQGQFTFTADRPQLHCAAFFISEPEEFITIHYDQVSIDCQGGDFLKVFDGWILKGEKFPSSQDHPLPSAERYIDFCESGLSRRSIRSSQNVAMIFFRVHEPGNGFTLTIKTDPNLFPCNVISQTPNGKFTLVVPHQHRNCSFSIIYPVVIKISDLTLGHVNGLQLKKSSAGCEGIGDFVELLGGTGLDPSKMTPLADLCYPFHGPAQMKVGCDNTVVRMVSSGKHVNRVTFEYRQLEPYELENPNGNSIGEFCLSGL
Nature of the assay: activators of CRF receptor 2 with binding protein – uHTS hits, confirmation (AID 602473). Particulars: read-out: EC50_Mean. Format: functional.

The target of assay [2] is T1, Corticotropin-releasing factor receptor 2/Corticotropin-releasing factor-binding protein. In words: Dose Response confirmation of uHTS hits for small molecule antagonists of the CRF-binding protein and CRF-R2 receptor complex. Particulars: read-out: IC50_Mean. The assay is classed as functional.
Assay [3] relates to HEK293. In words: cells. The assay is classed as functional, cell-based. Particulars: Homo sapiens.
The target of another assay is Ion channel NompC (Danio rerio, UniProt Q7T1G6). Nature of the assay: Dose response cell-based high-throughput screening assay for agonists of the transient receptor potential channel N1 (TRPN1). [Related pubchem assays (depositor defined):AID1424, AID1448]. Format: functional.
Chain of Ion channel NompC (Q7T1G6 whole entry): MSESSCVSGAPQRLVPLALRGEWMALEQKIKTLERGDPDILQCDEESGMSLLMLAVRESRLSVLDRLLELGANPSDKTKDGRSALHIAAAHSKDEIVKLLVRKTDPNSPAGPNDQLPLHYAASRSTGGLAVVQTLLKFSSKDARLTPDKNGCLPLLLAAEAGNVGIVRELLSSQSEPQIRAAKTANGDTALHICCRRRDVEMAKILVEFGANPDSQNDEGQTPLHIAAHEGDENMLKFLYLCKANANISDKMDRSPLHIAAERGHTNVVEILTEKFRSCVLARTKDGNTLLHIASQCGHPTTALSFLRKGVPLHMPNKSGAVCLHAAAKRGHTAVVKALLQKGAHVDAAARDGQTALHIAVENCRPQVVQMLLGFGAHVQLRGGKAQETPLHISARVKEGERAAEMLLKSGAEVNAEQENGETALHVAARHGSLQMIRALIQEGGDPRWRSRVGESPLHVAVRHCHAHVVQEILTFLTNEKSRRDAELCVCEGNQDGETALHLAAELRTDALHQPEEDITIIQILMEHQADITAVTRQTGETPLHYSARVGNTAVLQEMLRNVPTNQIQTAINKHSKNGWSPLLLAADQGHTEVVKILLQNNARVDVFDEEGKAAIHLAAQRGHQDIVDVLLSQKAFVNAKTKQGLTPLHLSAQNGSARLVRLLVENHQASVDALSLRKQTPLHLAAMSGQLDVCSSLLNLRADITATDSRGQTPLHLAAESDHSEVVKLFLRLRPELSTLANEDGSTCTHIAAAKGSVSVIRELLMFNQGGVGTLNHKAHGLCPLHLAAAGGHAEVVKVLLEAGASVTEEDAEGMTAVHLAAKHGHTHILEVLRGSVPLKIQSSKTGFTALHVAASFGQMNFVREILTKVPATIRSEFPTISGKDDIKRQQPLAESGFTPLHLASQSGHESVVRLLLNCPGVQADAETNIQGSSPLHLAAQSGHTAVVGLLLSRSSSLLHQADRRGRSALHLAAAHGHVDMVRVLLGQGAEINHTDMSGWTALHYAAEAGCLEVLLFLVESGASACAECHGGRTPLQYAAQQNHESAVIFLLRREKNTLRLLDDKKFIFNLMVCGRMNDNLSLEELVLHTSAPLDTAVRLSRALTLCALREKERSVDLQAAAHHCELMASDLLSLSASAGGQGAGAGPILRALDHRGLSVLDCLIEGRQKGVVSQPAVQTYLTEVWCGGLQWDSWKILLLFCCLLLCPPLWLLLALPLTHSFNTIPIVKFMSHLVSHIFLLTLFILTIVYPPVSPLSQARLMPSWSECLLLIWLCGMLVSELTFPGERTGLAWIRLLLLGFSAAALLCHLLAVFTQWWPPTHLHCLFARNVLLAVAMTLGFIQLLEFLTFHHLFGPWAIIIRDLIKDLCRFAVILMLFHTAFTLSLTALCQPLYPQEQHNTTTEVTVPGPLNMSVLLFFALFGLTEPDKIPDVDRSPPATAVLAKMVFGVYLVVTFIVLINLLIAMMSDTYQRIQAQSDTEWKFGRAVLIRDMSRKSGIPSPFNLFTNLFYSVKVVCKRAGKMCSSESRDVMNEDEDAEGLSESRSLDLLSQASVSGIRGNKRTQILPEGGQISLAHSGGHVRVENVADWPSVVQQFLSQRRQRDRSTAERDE
Assay [4] concerns HEK293. Nature of the assay: NOD1 signaling inhibitors, primary screen, cell-based, luminescence, uHTS (AID 1578). The assay is classed as functional. Particulars: Homo sapiens.
Assay [5] concerns HEK293. In words: cells. The assay is classed as functional, cell-based. Particulars: Homo sapiens. This is another data set of the same source.
Assay [6] in a line: CRF-BP/CRF-R2 complex antagonists, dose response, cell-based, uHTS hits, 384-well (AID 651639). Format: functional, Homo sapiens. To be noted: read-out: IC50_Mean.
In assay [7] the target is Nucleotide-binding oligomerization domain-containing protein 2 (Homo sapiens, UniProt Q9HC29). In words: NOD2 signaling inhibitors, cell-based, luminescence, uHTS, HEK293 (AID 1566). The assay is classed as functional.
Chain of Nucleotide-binding oligomerization domain-containing protein 2 (Q9HC29 whole entry, the tested form may be a part): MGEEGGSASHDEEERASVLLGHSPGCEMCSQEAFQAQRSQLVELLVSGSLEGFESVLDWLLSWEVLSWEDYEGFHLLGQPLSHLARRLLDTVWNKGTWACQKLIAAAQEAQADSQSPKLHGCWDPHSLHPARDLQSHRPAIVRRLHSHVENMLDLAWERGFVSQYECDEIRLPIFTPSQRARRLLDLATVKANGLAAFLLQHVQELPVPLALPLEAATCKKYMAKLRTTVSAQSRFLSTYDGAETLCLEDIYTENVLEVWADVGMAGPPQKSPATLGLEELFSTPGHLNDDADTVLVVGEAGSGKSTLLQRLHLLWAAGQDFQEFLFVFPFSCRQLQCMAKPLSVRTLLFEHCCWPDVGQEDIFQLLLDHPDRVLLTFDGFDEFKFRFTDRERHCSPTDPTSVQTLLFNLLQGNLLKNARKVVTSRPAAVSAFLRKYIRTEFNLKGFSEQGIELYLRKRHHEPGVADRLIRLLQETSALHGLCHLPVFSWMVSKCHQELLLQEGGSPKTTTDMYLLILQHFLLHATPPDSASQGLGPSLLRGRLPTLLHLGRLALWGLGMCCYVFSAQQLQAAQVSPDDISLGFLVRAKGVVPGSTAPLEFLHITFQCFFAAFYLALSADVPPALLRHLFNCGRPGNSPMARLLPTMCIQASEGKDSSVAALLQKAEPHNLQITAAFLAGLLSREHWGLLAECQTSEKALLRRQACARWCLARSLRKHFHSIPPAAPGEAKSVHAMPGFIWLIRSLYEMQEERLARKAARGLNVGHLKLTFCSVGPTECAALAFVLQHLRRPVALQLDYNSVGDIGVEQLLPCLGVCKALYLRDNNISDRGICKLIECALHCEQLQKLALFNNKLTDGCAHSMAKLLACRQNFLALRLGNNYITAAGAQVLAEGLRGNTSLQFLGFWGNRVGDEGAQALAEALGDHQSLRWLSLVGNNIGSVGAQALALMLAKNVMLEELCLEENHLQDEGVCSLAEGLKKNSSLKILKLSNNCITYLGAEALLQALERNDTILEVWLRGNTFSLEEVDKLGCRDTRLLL
A further assay concerns the target T2, Mucolipin-3 (Homo sapiens, UniProt Q8TDD5).
T2 sequence (Q8TDD5 whole entry): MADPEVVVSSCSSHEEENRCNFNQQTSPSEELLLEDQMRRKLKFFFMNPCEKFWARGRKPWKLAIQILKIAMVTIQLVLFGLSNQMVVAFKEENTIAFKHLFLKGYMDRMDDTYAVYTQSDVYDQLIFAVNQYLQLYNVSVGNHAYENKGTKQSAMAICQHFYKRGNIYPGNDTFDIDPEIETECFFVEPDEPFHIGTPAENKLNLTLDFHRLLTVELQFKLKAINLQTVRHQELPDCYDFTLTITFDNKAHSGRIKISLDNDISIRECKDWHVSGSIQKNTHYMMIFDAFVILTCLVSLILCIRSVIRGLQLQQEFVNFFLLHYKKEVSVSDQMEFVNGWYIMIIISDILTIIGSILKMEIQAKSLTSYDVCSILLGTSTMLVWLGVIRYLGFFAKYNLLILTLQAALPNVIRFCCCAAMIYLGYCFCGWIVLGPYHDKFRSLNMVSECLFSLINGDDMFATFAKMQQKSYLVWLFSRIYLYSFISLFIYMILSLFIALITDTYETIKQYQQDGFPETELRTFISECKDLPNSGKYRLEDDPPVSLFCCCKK
In words: Fluorescence counterscreen assay for […] agonists: dose response cell-based high-throughput screening assay to identify agonists of the transient receptor potential channel ML3 (TRPML3). [Related pubchem assays: 1424, 1448 ]. The assay is classed as functional.

The subject of assay [8] is HEK293. Nature of the assay: NOD2 signaling inhibitors in MDP-stimulated cells, cell-based, uHTS, luminescence (AID 2001). The assay is classed as functional. Particulars: Homo sapiens.
Assay [9] relates to HEK293. In words: cells. Format: functional, cell-based. To be noted: Homo sapiens. The source holds these as a separate data set.
In assay [10] the target is G-protein coupled receptor 55 (Homo sapiens, UniProt Q9Y2T6). In words: GPR55 antagonists blocking LPI-driven arrestin recruitment, primary screen, imaging, U2OS, beta-arrestin-GFP, LPI agonist (AID 2013).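 Note: antagonist potency measured as reduced agonist-driven arrestin aggregation.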 The assay is classed as functional.
Chain of G-protein coupled receptor 55 (Q9Y2T6 whole entry): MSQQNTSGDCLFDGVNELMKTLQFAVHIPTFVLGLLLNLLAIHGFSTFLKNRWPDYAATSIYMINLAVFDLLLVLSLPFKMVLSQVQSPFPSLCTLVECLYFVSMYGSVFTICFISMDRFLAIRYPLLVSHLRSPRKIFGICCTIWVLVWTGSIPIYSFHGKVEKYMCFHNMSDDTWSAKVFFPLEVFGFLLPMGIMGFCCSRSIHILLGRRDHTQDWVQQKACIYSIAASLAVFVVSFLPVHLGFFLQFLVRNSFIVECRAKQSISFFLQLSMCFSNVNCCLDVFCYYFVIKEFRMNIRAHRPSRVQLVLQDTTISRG
For assay [11], the target named is DNA dC->dU-editing enzyme APOBEC-3G (Homo sapiens, UniProt Q9HC16). Nature of the assay: Dose Response confirmation of small molecule APOBEC3G DNA Deaminase Inhibitors via a fluorescence-based single-stranded DNA deaminase assay. [Related pubchem assays (depositor defined):AID493012, AID493028]. The assay is classed as functional.
Chain of DNA dC->dU-editing enzyme APOBEC-3G (Q9HC16 whole entry): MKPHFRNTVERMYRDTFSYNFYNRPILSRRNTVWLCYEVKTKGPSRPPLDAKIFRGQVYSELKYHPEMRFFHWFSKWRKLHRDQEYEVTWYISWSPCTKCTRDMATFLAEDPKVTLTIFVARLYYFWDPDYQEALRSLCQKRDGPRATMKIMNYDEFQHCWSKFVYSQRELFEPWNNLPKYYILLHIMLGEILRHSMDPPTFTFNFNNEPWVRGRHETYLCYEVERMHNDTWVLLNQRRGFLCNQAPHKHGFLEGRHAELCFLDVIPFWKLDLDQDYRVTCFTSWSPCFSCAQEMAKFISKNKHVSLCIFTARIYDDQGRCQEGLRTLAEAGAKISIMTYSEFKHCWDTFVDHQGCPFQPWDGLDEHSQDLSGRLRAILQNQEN
The target of assay [12] is DNA dC->dU-editing enzyme APOBEC-3A (Homo sapiens, UniProt P31941). In words: APOBEC3A DNA deaminase inhibitors, dose response, biochemical (AID 504722). Format: functional.
Chain of DNA dC->dU-editing enzyme APOBEC-3A (P31941 whole entry): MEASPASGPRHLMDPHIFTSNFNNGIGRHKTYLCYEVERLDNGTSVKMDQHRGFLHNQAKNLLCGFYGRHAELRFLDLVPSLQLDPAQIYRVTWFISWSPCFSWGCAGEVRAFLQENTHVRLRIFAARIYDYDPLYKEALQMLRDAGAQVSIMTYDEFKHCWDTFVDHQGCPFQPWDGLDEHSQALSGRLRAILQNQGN
Assay [13] deals with T3, Histone-lysine N-methyltransferase NSD2 (Homo sapiens, UniProt O96028).
T3 sequence (O96028 whole entry): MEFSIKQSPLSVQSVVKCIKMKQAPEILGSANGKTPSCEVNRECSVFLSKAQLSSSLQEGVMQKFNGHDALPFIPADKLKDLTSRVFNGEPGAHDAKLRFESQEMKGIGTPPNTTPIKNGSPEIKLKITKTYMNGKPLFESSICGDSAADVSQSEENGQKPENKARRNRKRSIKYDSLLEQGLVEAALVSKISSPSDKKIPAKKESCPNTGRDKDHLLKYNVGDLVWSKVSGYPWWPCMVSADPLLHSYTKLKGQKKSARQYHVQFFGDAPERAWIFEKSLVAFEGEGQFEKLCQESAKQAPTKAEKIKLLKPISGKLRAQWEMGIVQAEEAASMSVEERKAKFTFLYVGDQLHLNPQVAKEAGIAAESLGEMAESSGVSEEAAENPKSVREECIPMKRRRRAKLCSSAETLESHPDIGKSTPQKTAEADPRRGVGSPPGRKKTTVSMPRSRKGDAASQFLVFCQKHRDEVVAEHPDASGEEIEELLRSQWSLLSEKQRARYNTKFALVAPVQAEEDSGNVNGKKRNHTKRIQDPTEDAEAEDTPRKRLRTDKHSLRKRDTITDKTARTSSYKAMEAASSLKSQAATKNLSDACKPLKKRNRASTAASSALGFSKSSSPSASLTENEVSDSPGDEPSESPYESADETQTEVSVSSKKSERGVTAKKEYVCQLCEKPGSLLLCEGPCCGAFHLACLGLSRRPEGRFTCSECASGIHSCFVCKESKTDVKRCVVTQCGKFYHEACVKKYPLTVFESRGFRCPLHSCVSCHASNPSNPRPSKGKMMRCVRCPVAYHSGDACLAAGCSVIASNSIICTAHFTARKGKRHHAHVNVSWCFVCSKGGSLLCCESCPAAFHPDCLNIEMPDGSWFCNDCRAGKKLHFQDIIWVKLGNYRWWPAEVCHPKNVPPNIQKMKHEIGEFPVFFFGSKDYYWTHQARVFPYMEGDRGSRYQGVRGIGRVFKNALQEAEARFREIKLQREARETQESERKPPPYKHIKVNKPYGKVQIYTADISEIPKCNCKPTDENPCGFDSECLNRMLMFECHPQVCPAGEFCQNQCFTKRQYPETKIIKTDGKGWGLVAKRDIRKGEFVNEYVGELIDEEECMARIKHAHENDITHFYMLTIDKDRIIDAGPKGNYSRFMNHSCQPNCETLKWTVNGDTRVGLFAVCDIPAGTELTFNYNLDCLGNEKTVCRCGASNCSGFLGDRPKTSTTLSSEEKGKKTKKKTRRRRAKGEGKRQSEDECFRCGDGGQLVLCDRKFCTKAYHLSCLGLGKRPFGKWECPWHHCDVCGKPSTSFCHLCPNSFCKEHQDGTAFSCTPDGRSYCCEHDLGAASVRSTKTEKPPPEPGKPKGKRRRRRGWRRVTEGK
Format: biochemical.

Another assay relates to HeLa. Nature of the assay: HeLa cell cytotoxicity, dose response, cytotoxicity control, 24 h, cherry-picked samples (AID 504726).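 Note: potency for cytotoxicity as loss of luminescence signal.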 The assay is classed as functional, cell-based. To be noted: Homo sapiens.
The target in a further assay is Caspase-6 (Homo sapiens, UniProt P55212). In words: human caspase-6 inhibitors, dose response, biochemical, VEID-R110 fluorescence, cherry-pick (AID 720632).
Chain of Caspase-6 (P55212 24-179 limits assumed): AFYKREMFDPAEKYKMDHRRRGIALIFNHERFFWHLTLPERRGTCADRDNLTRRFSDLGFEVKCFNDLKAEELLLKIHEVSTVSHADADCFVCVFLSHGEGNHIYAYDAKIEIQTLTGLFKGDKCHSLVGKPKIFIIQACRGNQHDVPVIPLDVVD
Chain of Caspase-6 (P55212 194-293 limits assumed): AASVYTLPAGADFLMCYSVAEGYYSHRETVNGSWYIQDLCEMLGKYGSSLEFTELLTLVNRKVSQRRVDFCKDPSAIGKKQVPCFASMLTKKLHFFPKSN
Assay [14] can be described thus: Luminescence Cell-Based Dose Retest to Confirm Inhibitors of Cancer Stem Cells. [Related pubchem assays (depositor defined):AID2717, AID2721]. Format: functional. Particulars: Homo sapiens.
Assay [15] has as its target G-protein coupled receptor 35 (Homo sapiens, UniProt Q9HC97). Nature of the assay: GPR35 antagonists blocking zaprinast-driven arrestin recruitment, primary screen, imaging, U2OS, beta-arrestin-GFP, zaprinast agonist (AID 2058).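 Note: antagonist potency meaning inhibition of agonist-induced arrestin redistribution.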 Format: functional.
In assay [16] the target is T4, Heat shock factor protein 1 (Mus musculus, UniProt P38532).
T4 sequence (P38532 whole entry): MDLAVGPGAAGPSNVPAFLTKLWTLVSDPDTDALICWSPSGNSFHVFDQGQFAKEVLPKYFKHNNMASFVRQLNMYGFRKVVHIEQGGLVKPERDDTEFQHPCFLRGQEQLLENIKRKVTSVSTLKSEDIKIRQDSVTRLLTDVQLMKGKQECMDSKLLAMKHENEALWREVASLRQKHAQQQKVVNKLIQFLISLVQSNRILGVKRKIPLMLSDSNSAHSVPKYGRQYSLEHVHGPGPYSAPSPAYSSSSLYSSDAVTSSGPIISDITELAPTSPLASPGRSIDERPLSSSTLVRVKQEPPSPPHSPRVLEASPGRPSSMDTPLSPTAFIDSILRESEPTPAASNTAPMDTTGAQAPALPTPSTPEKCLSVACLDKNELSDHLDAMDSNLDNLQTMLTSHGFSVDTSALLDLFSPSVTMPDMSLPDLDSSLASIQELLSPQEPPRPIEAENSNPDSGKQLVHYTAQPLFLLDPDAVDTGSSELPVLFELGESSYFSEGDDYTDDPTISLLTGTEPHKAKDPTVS
Nature of the assay: inhibition of MG132-induced HSE-luciferase signal, confirmation, cell-based, NIH3T3, luminescence, dose retest (AID 2382).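 Note: NIH3T3 fibroblasts with HSF1-driven luciferase reporter stressed by proteasome inhibitor MG132; luminescence from HSF1-driven luciferase expression after 8 hours of MG132 stress.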 Format: functional.

Assay [17] deals with Streptococcus sp. 'group A'. Nature of the assay: growth inhibition of control SK(-) GAS strain, dose response, counter-screen for streptokinase expression inhibitor project, luminescence, kanamycin, BacTiterGlo, confirmation (AID 1900). The assay is classed as functional, organism-based.
In another assay the test system is Streptococcus. In words: Group A Streptococcus viability loss, dose response, counter-screen for streptokinase expression inhibitor project, luminescence, BacTiterGlo (AID 1915).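 Note: potency for reduction of bacterial viability or growth.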 Format: functional, organism-based.
The nature of assay [18]: off-target signal loss in HeLa-CEM21 co-culture – HeLa F-luc CTL cells, cherry-picked, counter-screen for HIV-1 Env fusion inhibitor project, dose response (AID 652040).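 Note: potency for signal decrease marking cytotoxic or nonspecific inhibition.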 Format: functional, cell-based.
Assay [19] in a line: inhibitors of clade B AD8 Env fusion, dose response, cell-based, cherry-pick (AID 652062).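 Note: luciferase signal from cell-cell fusion driven by HIV-1 clade B AD8 Env; potency is for inhibitors of fusion seen as a drop in luminescence.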 Format: functional.
The nature of assay [20]: inhibitors of HIV Env-driven cell fusion, dose response, cherry-pick (AID 652057). The assay is classed as functional, cell-based.
Assay [21] is described as follows: CEM21 lymphoblast cell cytotoxicity, dose response, cytotoxicity control for viral fusion inhibitor project, CellTiter-Glo luminescence, cherry-picked (AID 652042).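 Note: potency for signal decrease meaning cytotoxicity.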 The assay is classed as functional, cell-based.

Chain of G-protein coupled receptor 35 (Q9HC97 whole entry): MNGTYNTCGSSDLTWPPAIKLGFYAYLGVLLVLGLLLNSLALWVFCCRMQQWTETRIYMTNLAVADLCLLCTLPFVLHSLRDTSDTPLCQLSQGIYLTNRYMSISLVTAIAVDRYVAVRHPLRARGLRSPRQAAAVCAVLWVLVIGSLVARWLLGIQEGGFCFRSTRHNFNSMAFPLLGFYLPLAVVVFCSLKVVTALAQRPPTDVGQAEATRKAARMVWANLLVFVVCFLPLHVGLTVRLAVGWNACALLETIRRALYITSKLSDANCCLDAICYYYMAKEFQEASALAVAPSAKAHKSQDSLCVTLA

Turning to `COC(=O)c1ccc(NC(=O)c2ccccc2NS(=O)(=O)c2ccccc2)cc1`, the EC50 was > 53 µM (inactive) in assay [1]; > 29.9 µM (inactive) at Ion channel NompC; 2.34 µM (active) in the assay on HEK293 [4]; 6.09 µM (active) in assay [7]; > 29.9 µM (not active) at Mucolipin-3. The IC50 is 0.506 µM (active) in [2]; > 20 µM (inactive) with HEK293 [3]; > 20 µM (inactive) with HEK293 [5]; > 20 µM (inactive) in assay [6]; 7.55 µM (active) in the assay with HEK293 [8]; 12.9 µM (active) with HEK293 [9].

In the case of `NC(=O)c1cc(-c2ccccc2)nc(N2CCOCC2)n1`, the IC50 in assay [10] is 7.26 µM (active).

In the case of `C=CCn1c(-c2cccc(Cl)c2)n[nH]c1=S`, the IC50 in assay [11] was 6.21 µM (active); in assay [12], > 100 µM (inactive).

Consider `COc1cccc(/C=N/n2c(S)nnc2-c2[nH]nc3c2CCC3)c1OC`, for which the IC50 is 3.45 µM (active) in assay [11] and > 100 µM (inactive) in [12].

With `CCN(C(=O)COC(=O)c1ccc([N+](=O)[O-])o1)C1CCCCC1`, the AC50 in assay [13] is > 20 µM (inactive); in the assay on HeLa, > 350 µM (inactive); at Caspase-6, 34.1 µM (active).

Turning to `CC12CCC(C/C1=N\NC1=NC(=O)/C(=C\c3ccc(Cl)cc3)S1)C2(C)C` (centres undefined), the AC50 in assay [14] is 2.16 µM (active). Moreover, the IC50 in [15] was 13.9 µM (inactive). For the same molecule, the EC50 in [16] was 1.2 µM (active); in assay [17], 1.18 µM (active); in the assay on Streptococcus, 2.34 µM (active).

Regarding `Cc1ccc(C(O)(c2ccccc2)c2ccccc2C(C)N(C)C)c(C)c1` (centres undefined), the AC50 was 39 µM (active) in assay [18], 30.5 µM (active) in assay [19], 20.1 µM (active) in assay [20] and 19.6 µM (active) in assay [21]. In assay [10], the IC50 was 0.799 µM (active).
